Measured values taken from patent US4189484A, “Antihypertensive quinazoline derivatives” (priority 1977, dated 1980).

Tests used:
ICR strain male mice = assay: in vivo; format: in vivo; settings: for No. of deceased animal: 8 animals per group, 1 week
Procedure: (§1) ICR strain male mice, weighing 30-35 g., were deprived of food for 6 hours (water ad libitum) and then used in the experiment. Each group consisted of 8 animals. The test compound was suspended in a 1% tragacanth gum solution so as to be a volume of 40 ml./kg. and orally given. After administration, numbers of deceased animals, changes in body weight and other general states were observed or determined over 1 week.
(§2) Survived mice were autopsyed.

in vivo = format: in vivo; settings: mouse, in vivo, po; mice
Procedure: as §1, §2

Adrenergic α-receptor = Adrenergic α-receptor blocking effect (inhibition of hypertensive action of i.v. adrenalin hydrochloride); format: in vivo, Wistar strain male rats; settings: relative to prazosin
Procedure: Wistar strain male rats, weighing 250-300 g., were used in this experiment. The rat was anesthetized with pentobarbital sodium and fitted in the right femoral artery with a cannula for determination of blood pressure and in the left femoral vein with another cannula for intravenous injection, the former cannula being connected to an electronic recording system to measure a blood pressure.
Adrenergic α-receptor blocking effect was determined upon whether a hypertensive action with intravenous injection of adrenalin hydrochloride at 0.3 or 1 μg./kg. may be reserved by pretreatment with the test compound.

[1] = system: spontaneously hypertensive rats (SHR); assay: Antihypertensive effect, oral administration to spontaneously hypertensive rats (mean blood pressure and heart rate); format: in vivo, rat; settings: for Change in blood pressure after 3 hrs. from administration: Table 1; for Changes in blood pressure (BP) after oral administration / Changes in heart rate (HR) after oral administration: Table 2, male SHR, n=5, p.o.
Procedure: Antihypertensive effect was determined by oral administration of the test compound to spontaneously hypertensive rats (hereinafter referred to as SHR).
These SHR were anesthetized with ether and chronically embedded with a cannula for determination of blood pressure so that one end of the said cannula may be placed in abdominal aorta and the other end thereof may be projected out of dorsal neck. When rats regained their body weight before operation in more than 1 week from operation, the test compound was given. Determination was made by measuring a mean blood pressure and a heart rate under unanesthetized and unrestrained conditions with the cannula connected to an electronic recording system. The test compound was suspended in a 1% tragacanth gum solution to make up a concentration so as to be a volume of 5 ml./kg. and then orally given.

Compound: COc1cc2nc(N3CCN(C(=O)C=Cc4ccccc4)CC3)nc(N)c2cc1OC [Compound No. 1, 2-(4-Cinnamoylpiperazin-1-yl)-4-amino-6,7-dimethoxyquinazoline]
- Body weight gain after 7 days (ICR strain male mice; p.o., 1,250 mg./kg.): +3.9 g.
- No. of deceased animal (ICR strain male mice; p.o., 1,250 mg./kg.): 0
- Body weight gain after 7 days (ICR strain male mice; p.o., 2,500 mg./kg.): +4.0 g.
- No. of deceased animal (ICR strain male mice; p.o., 2,500 mg./kg.): 0
- Body weight gain after 7 days (ICR strain male mice; p.o., 5,000 mg./kg.): +4.7 g.
- No. of deceased animal (ICR strain male mice; p.o., 5,000 mg./kg.): 0
- LD50 at 168 h (in vivo): > 5000 mg/kg
- α-receptor blocking action as compared with the action of prazosin (Adrenergic α-receptor): 1/10
- time of maximum antihypertensive effect from oral administration ([1]; SHR, p.o.): 3 to 6 h
- antihypertensive effect, dose dependence ([1]; SHR, p.o., 0.3-3 mg./kg., in words): correlated with a dose
- Change in blood pressure after 3 hrs. from administration ([1]; SHR, p.o., 1 mg./kg., 3 hrs.): -18 mmHg
- Change in blood pressure after 3 hrs. from administration ([1]; SHR, p.o., 10 mg./kg., 3 hrs.): -53 mmHg
- Changes in blood pressure (BP) after oral administration ([1]; 0.3 mg./kg., 1 hr.): -14±5.1 mm.Hg.
- Changes in heart rate (HR) after oral administration ([1]; 0.3 mg./kg., 1 hr.): -5.3±3.9 no/min.
- Changes in blood pressure (BP) after oral administration ([1]; 0.3 mg./kg., 3 hrs.): -16±3.3 mm.Hg.
- Changes in heart rate (HR) after oral administration ([1]; 0.3 mg./kg., 3 hrs.): -3.8±7.4 no/min.
- Changes in blood pressure (BP) after oral administration ([1]; 0.3 mg./kg., 6 hrs.): -19±1.9 mm.Hg.
- Changes in heart rate (HR) after oral administration ([1]; 0.3 mg./kg., 6 hrs.): 0.3±5.9 no/min.
- Changes in blood pressure (BP) after oral administration ([1]; 0.3 mg./kg., 24 hrs.): 4±4.3 mm.Hg.
- Changes in heart rate (HR) after oral administration ([1]; 0.3 mg./kg., 24 hrs.): 3.9±7.1 no/min.
- Changes in blood pressure (BP) after oral administration ([1]; 1 mg./kg., 1 hr.): -20±1.6 mm.Hg.
- Changes in heart rate (HR) after oral administration ([1]; 1 mg./kg., 1 hr.): -4.8±4.1 no/min.
- Changes in blood pressure (BP) after oral administration ([1]; 1 mg./kg., 3 hrs.): -26±3.3 mm.Hg.
- Changes in heart rate (HR) after oral administration ([1]; 1 mg./kg., 3 hrs.): -1.5±4.7 no/min.
- Changes in blood pressure (BP) after oral administration ([1]; 1 mg./kg., 6 hrs.): -27±4.1 mm.Hg.
- Changes in heart rate (HR) after oral administration ([1]; 1 mg./kg., 6 hrs.): -7.9±2.7 no/min.
- Changes in blood pressure (BP) after oral administration ([1]; 1 mg./kg., 24 hrs.): -2±1.2 mm.Hg.
- Changes in heart rate (HR) after oral administration ([1]; 1 mg./kg., 24 hrs.): -0.5±3.2 no/min.
- Changes in blood pressure (BP) after oral administration ([1]; 3 mg./kg., 1 hr.): -40±3.5 mm.Hg.
- Changes in heart rate (HR) after oral administration ([1]; 3 mg./kg., 1 hr.): 6.9±5.4 no/min.
- Changes in blood pressure (BP) after oral administration ([1]; 3 mg./kg., 3 hrs.): -35±4.4 mm.Hg.
- Changes in heart rate (HR) after oral administration ([1]; 3 mg./kg., 3 hrs.): -1.7±5.5 no/min.
- Changes in blood pressure (BP) after oral administration ([1]; 3 mg./kg., 6 hrs.): -35±3.5 mm.Hg.
- Changes in heart rate (HR) after oral administration ([1]; 3 mg./kg., 6 hrs.): 10.0±8.3 no/min.
- Changes in blood pressure (BP) after oral administration ([1]; 3 mg./kg., 24 hrs.): -4±4.3 mm.Hg.
- Changes in heart rate (HR) after oral administration ([1]; 3 mg./kg., 24 hrs.): 19.5±7.2 no/min.
